The structures appear in SMILES notation. Where a name gives a salt, the structure may show the parent alone.

In this assay the target is T1, human Cav2.2 (composed of the subunits α1, β3 and α2δ) (Homo sapiens, UniProt Q00975).
T1 construct: expressed in transfected cells
T1 sequence (Q00975 whole entry): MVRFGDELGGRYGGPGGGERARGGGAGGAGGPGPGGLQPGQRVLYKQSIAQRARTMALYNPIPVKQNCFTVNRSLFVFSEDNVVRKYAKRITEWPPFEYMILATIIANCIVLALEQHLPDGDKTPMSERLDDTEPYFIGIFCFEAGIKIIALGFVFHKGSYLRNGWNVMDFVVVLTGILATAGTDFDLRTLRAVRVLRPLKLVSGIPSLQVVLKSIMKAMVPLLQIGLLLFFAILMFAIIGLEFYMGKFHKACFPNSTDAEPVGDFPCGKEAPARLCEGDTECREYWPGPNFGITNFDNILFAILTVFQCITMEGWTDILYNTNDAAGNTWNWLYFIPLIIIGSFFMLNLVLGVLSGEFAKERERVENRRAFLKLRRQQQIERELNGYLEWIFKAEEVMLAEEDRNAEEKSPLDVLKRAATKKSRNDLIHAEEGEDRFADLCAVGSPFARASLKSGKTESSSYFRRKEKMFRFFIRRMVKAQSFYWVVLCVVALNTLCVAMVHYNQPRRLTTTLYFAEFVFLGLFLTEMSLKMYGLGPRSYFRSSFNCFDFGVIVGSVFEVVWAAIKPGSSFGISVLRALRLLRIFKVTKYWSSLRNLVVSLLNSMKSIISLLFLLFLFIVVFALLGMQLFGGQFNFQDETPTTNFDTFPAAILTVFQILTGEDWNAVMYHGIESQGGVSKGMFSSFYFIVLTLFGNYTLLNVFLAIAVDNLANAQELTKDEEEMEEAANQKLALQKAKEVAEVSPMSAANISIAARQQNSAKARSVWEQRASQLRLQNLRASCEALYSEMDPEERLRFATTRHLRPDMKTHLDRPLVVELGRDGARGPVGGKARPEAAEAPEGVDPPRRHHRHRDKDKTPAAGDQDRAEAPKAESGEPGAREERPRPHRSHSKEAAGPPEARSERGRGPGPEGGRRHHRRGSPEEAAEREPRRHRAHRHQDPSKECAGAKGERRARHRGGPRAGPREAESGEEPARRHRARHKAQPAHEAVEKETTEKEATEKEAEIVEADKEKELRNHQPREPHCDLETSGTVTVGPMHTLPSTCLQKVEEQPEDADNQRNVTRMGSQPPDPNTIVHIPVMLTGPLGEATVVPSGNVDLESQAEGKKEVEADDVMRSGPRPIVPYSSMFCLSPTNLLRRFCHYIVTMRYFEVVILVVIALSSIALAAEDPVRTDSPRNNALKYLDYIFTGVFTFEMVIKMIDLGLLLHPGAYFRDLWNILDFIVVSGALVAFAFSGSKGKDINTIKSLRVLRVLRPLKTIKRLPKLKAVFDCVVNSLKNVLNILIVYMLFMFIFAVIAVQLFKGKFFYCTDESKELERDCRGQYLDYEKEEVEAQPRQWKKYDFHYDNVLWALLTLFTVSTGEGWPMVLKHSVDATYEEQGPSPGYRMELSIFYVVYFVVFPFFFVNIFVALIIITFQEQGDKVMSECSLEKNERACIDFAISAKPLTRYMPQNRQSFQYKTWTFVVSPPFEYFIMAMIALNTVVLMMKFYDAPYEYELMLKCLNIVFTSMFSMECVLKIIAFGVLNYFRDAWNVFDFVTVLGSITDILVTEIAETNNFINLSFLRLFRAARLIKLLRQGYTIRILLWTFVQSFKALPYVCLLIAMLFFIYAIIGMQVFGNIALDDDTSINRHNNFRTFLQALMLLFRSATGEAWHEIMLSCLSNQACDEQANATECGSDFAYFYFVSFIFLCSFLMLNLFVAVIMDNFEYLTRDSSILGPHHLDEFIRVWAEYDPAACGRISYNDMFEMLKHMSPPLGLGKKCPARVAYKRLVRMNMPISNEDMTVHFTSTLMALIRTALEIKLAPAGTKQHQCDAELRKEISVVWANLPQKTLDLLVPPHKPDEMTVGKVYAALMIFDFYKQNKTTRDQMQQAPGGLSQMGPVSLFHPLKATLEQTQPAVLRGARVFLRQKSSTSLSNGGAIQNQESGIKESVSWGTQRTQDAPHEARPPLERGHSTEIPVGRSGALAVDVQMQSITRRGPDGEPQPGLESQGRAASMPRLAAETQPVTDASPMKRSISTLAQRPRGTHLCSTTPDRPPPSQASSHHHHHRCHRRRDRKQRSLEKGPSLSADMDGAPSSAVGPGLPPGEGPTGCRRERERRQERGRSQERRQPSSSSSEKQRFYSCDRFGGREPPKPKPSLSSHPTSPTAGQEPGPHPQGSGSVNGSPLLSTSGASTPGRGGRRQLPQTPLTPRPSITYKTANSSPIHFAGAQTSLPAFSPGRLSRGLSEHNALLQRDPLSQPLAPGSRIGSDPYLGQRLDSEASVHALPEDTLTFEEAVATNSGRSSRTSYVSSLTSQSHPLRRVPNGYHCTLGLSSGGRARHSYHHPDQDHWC
T1 sequence (P54284 whole entry partner): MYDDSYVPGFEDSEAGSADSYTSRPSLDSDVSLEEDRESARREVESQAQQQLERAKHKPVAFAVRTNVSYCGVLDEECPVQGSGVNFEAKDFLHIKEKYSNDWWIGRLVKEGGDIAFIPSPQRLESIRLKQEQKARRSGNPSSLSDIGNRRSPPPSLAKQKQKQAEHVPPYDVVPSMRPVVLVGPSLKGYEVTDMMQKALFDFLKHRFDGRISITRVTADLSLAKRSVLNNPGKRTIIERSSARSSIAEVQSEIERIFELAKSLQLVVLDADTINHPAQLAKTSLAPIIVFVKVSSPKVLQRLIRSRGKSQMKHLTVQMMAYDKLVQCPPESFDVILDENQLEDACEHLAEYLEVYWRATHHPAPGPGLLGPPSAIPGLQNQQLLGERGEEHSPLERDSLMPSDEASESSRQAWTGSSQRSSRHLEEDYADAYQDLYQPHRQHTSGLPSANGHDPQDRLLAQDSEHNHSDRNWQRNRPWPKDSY
T1 sequence (P54289 25-946 partner limits assumed): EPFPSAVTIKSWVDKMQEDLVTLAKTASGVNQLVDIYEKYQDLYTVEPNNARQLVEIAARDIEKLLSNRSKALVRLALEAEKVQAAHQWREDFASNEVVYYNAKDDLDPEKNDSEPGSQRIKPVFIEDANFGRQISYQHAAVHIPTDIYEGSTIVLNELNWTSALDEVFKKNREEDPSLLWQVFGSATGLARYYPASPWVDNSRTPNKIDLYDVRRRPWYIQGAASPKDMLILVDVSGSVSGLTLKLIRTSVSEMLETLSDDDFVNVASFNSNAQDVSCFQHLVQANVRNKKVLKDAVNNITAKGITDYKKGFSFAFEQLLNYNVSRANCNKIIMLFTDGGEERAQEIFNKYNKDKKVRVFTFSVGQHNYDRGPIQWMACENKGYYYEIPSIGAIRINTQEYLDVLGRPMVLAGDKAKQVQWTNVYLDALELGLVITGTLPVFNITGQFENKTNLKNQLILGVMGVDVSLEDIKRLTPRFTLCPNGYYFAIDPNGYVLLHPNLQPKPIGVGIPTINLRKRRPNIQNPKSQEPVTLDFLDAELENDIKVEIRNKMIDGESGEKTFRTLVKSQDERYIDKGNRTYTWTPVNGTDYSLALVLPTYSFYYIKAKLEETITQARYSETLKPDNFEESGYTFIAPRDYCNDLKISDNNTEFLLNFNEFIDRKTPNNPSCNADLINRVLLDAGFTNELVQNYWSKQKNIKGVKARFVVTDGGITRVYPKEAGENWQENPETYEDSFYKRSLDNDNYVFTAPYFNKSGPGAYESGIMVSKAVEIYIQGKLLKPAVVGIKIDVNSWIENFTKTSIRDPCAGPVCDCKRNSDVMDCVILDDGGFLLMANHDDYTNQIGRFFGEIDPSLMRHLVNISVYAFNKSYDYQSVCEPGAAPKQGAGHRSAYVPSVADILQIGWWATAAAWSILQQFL
T1 sequence (P54289 947-1103 partner limits assumed): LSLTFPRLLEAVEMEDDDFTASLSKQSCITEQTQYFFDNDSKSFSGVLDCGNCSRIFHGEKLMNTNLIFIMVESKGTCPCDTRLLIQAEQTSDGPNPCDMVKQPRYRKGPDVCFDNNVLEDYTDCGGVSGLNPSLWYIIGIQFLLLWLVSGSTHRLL
The experiment in a line: FLIPR assay (TSA201 cells stably transfected with human Cav2.2 and human Kir2.3, FLUO-4 Ca2+ signal, KCl depolarization). The format is cell-based. Conditions: 70 mM KCl depolarization, average value. On the procedure:
TSA201 cells stably transfected with human Cav2.2 (composed of the subunits α1, β3 and α2δ) and human Kir2.3 to enhance the FLIPR Ca^2+ signal were used. These cells were plated on 384-well collagen-coated plates (BD Bioscience, Franklin Lakes, N.J.) at a density of 2×10^4 cells/well one day prior to the FLIPR assay. […] Culture media is removed and replaced with 25 μl of the FLUO-4 dye solution and incubated for one hour at room temperature. The cell plate is then placed on the FLIPR where the dye is aspirated off and replaced with 25 μl of HBSS (Invitrogen, Carlsbad, Calif.). The HBSS is then aspirated and replaced with […] of compound which is diluted in HBSS with 1% DMSO. Compounds are incubated on the cells for 15 minutes. The cells are then depolarized with 25 μl of 140 mM KCl solution (also containing 2 mM CaCl2 and 10 mM HEPES). The final concentration of KCl on the cells is 70 mM.
By IC50 is commonly meant the concentration that inhibits the measured activity by half. Read a low IC50 as inhibition by little substance. On to `CC(=O)N(Cc1csc(N2CCCC(O)C2)n1)c1ccc(F)cc1` (stereo not drawn) [Compound 223, N-(4-fluorophenyl)-N-{[2-(3-hydroxypiperidin-1-yl)-1,3-thiazol-4-yl]methyl}acetamide], for which the concentration for half-maximal inhibition (IC50) came out at 31.4 µM. Next, `CC(C)(C)C(=O)N(Cc1csc(-c2cccc(F)c2)n1)c1ccc(F)cc1` [Compound 248, N-(4-fluorophenyl)-N-{[2-(3-fluorophenyl)-1,3-thiazol-4-yl]methyl}-2,2-dimethylpropanamide]: 5.3 µM. Next, `CCC(C)(C)C(=O)N(Cc1csc(N2CCOCC2)n1)c1ccc(F)cc1` [Compound 138, N-(4-fluorophenyl)-2,2-dimethyl-N-[(2-morpholin-4-yl-1,3-thiazol-4-yl)methyl]butanamide]: 14.5 µM.

Turning to `CCN(c1nc(CN(C(=O)C2CCCCC2)C2CCCCC2)cs1)C1CC1` [Compound 198, N-cyclohexyl-N-({2-[cyclopropyl(ethyl)amino]-1,3-thiazol-4-yl}methyl)cyclohexanecarboxamide], the midpoint of inhibition, the IC50, lay at 3.3 µM. Next, `CC(C)(C)C(=O)N(Cc1csc(N2CCN(c3ncccn3)CC2)n1)c1ccc(F)cc1` [Compound 151, N-(4-fluorophenyl)-2,2-dimethyl-N-{[2-(4-pyrimidin-2-ylpiperazin-1-yl)-1,3-thiazol-4-yl]methyl}propanamide dihydrochloride]: 4 µM; `CCN(c1ccc(CN(C(=O)[C@@H]2CCCN2)c2ccc(OC)cc2)cc1)C1CC1` [Compound 117, N-{4-[cyclopropyl(ethyl)amino]benzyl}-N-(4-methoxyphenyl)-L-prolinamide]: 9.7 µM; `CC(C)(C)OC(=O)c1cccc(-c2ccc(CN(C(=O)C(C)(C)C)c3ccc(F)cc3)cn2)c1` [Compound 202, tert-butyl 3-(5-{[(2,2-dimethylpropanoyl)(4-fluorophenyl)amino]methyl}pyridin-2-yl)benzoate]: 11.1 µM. As to `CC(=O)N(Cc1ccc(N(C)CCO)nc1)c1ccc(F)cc1` [Compound 230, N-(4-fluorophenyl)-N-({6-[(2-hydroxyethyl)(methyl)amino]pyridin-3-yl}methyl)acetamide], the 50% inhibitory concentration (IC50) worked out at 45.3 µM. Next, `CC(C)(C)C(=O)N(Cc1ccc(Cl)nc1)c1ccc(F)cc1` [Compound 195, N-[(6-chloropyridin-3-yl)methyl]-N-(4-fluorophenyl)-2,2-dimethylpropanamide]: 10.1 µM; `CC(=O)N(Cc1csc(Br)n1)c1ccc(F)cc1` [Compound 214, N-[(2-bromo-1,3-thiazol-4-yl)methyl]-N-(4-fluorophenyl)acetamide]: 48.7 µM. For `CCN(c1nc(CN(C(=O)C(C)(C)C)c2cccc(C)c2)cs1)C1CC1` [Compound 172, N-({2-[cyclopropyl(ethyl)amino]-1,3-thiazol-4-yl}methyl)-2,2-dimethyl-N-(3-methylphenyl)propanamide] the value was 4.3 µM; for `CC(C)(C)C(=O)N(Cc1csc(N2CCCCC2)n1)c1ccc(F)cc1` [Compound 134, N-(4-fluorophenyl)-2,2-dimethyl-N-[(2-piperidin-1-yl-1,3-thiazol-4-yl)methyl]propanamide], 4.4 µM; for `CC(C)(C)C(=O)N(CCCc1csc(N2CCOCC2)n1)c1ccc(F)cc1` [Compound 213, N-(4-fluorophenyl)-2,2-dimethyl-N-[3-(2-morpholin-4-yl-1,3-thiazol-4-yl)propyl]propanamide], 3.8 µM. In turn, `CN1CCN(c2ccc(CN(C(=O)C3CCCCC3)c3ccc(F)cc3)cn2)CC1` [Compound 125, N-(4-fluorophenyl)-N-{[6-(4-methylpiperazin-1-yl)pyridin-3-yl]methyl}cyclohexanecarboxamide] came in with a 50% inhibitory concentration (IC50) of 9.5 µM. Next, `CC(C)(C)C(=O)N(Cc1csc(N2CCOCC2)n1)c1ccc(F)cc1` [Compound 136, N-(4-fluorophenyl)-2,2-dimethyl-N-[(2-morpholin-4-yl-1,3-thiazol-4-yl)methyl]propanamide]: 5.6 µM; `CCN(c1cccc(CN(C(=O)[C@@H]2CCCN2)c2ccc(F)cc2)c1)C1CC1` [Compound 118, N-{3-[cyclopropyl(ethyl)amino]benzyl}-N-(4-fluorophenyl)-L-prolinamide]: 3.4 µM; `CC(=O)N(Cc1ccc(N2CCOCC2)nc1)c1ccc(F)cc1` [Compound 227, N-(4-fluorophenyl)-N-[(6-morpholin-4-ylpyridin-3-yl)methyl]acetamide]: 35 µM.

`O=C(C1CCCO1)N(Cc1ccc(Cl)nc1)c1ccc(F)cc1` (stereo not drawn) [Compound 252, N-[(6-chloropyridin-3-yl)methyl]-N-(4-fluuorophenyl)tetrahydrofuran-2-carboxamide] had an IC50 of 13.4 µM.

In turn, `CC(C)C(=O)N(Cc1csc(N2CCOCC2)n1)c1ccc(F)cc1` [Compound 208, N-(4-fluorophenyl)-2-methyl-N-[(2-morpholin-4-yl-1,3-thiazol-4-yl)methyl]propanamide] had a half-maximal inhibitory concentration (IC50) of 22.2 µM. As to `CCN(c1nc(CN(C(=O)C(C)(C)C)c2ccc(F)cc2)cs1)C1CC1` [Compound 143, N-({2-[cyclopropyl(ethyl)amino]-1,3-thiazol-4-yl}methyl)-N-(4-fluorophenyl)-2,2-dimethylpropanamide], the IC50 turned out to be 3.8 µM. Consider `CCN(c1nc(CN(C(=O)C(C)(C)C)c2ccc(C)cc2)cs1)C1CC1` [Compound 173, N-({2-[cyclopropyl(ethyl)amino]-1,3-thiazol-4-yl}methyl)-2,2-dimethyl-N-(4-methylphenyl)propanamide], for which the half-maximal inhibitory concentration (IC50) is 3.8 µM. With `CCN(CC)c1ccc(CN(C(=O)Cc2cccs2)c2ccc(F)cc2)cn1` [Compound 129], half-maximal inhibition (IC50) was put at 1.5 µM. The compound `CC(C)(C)C(=O)N(Cc1csc(N2CCN(Cc3ccccc3)CC2)n1)c1ccc(F)cc1` [Compound 177, N-{[2-(4-benzylpiperazin-1-yl)-1,3-thiazol-4-yl]methyl}-N-(4-fluorophenyl)-2,2-dimethylpropanamide] came in with an IC50 of 9.3 µM. The compound `CC(=O)N(Cc1ccc(Cl)nc1)c1ccc(F)cc1` [Compound 215, N-[(6-chloropyridin-3-yl)methyl]-N-(4-fluorophenyl)acetamide] registered an IC50 of 21.4 µM. The compound `CCN(CC)c1ccc(CN(C(=O)[C@@H]2CCCN2)c2ccc(F)cc2)cn1` [Compound 116, N-{[6-(diethylamino)pyridin-3-yl]methyl}-N-(4-fluroophenyl)-L-prolinamide] came in with an IC50 of 34.8 µM. In the case of `CC(C)(C)C(=O)N(Cc1csc(Nc2ccc(F)cc2)n1)c1ccc(F)cc1` [Compound 158, N-(4-fluroophenyl)-N-({2-[(4-fluorophenyl)amino]-1,3-thiazol-4-yl}methyl)-2,2-dimethylpropanamide], half-maximal inhibition (IC50) was put at 9.4 µM. `CC(=O)N(Cc1ccc(N2CCCC(O)C2)nc1)c1ccc(F)cc1` (stereo not drawn) [Compound 232, N-(4-fluorophenyl)-N-{[6-(3-hydroxypiperidin-1-yl)pyridin-3-yl]methyl}acetamide] showed a half-maximal inhibitory concentration (IC50) of 30.2 µM. Compound `CNc1nc(CN(C(=O)C(C)(C)C)c2ccc(F)cc2)cs1` [Compound 160, N-(4-fluorophenyl)-2,2-dimethyl-N-{[2-(methylamino)-1,3-thiazol-4-yl]methyl}propanamide] had an IC50 of 6.1 µM.

Take `CCN(c1nc(CN(C(C)=O)c2ccc(F)cc2)cs1)C1CC1` [Compound 210, N-({2-[cyclopropyl(ethyl)amino]-1,3-thiazol-4-yl}methyl)-N-(4-fluorophenyl)acetamide]: the IC50 is 9.1 µM. For `CC(C)(C)C(=O)N(Cc1csc(N2CCC(C#N)CC2)n1)c1ccc(F)cc1` [Compound 188, N-{[2-(4-cyanopiperidin-1-yl)-1,3-thiazol-4-yl]methyl}-N-(4-fluorophenyl)-2,2-dimethylpropanamide] the value was 3.8 µM; for `CC(C)(C)C(=O)N(Cc1csc(N2C[C@@H]3C[C@H]2CN3)n1)c1ccc(F)cc1` [Compound 162, N-({2-[(1S,4S)-2,5-diazabicycl[2.2.1]hept-2-yl]-1,3-thiazol-4-yl}methyl)-N-(4-fluorophenyl)-2,2-dimethylpropanamide], 11 µM; for `CC(=O)N(Cc1ccc(N2CCC(CO)CC2)nc1)C1CCCCC1` [Compound 237, N-cyclohexyl-N-({6-[4-(hydroxymethyl)piperidin-1-yl]pyridin-3-yl}methyl)acetamide], 23.9 µM. Next, `CN(C)CCNc1nc(CN(C(=O)C(C)(C)C)c2ccc(F)cc2)cs1` [Compound 153, N-[(2-{[2-(dimethylamino)ethyl]amino}-1,3-thiazol-4-yl)methyl]-N-(4-fluorophenyl)-2,2-dimethylpropanamide]: 12.9 µM. The compound `CN1CCN(c2nc(CN(C(=O)C(C)(C)C)c3ccc(F)cc3)cs2)CC1` [Compound 150, N-(4-fluorophenyl)-2,2-dimethyl-N-{[2-(4-methylpiperazin-1-yl)-1,3-thiazol-4-yl]methyl}propanamide] showed an IC50 of 10.6 µM. For `CC(C)(C)C(=O)N(Cc1csc(-c2ccccc2)n1)c1ccc(F)cc1` [Compound 180, N-(4-fluorophenyl)-2,2-dimethyl-N-[(2-phenyl-1,3-thiazol-4-yl)methyl]propanamide] the value was 7.9 µM. Next, `CC(C)(C)C(=O)N(Cc1csc(-c2ccc(O)cc2)n1)c1ccc(F)cc1` [Compound 244, N-(4-fluorophenyl)-N-{[2-(4-hydroxyphenyl)-1,3-thiazol-4-yl]methyl}-2,2-dimethylpropanamide]: 7.3 µM.

The values are drawn from patent US20100267697A1, “ION CHANNEL MODULATORS” (Wyeth, priority 2006, published 2010).
